Assay results taken from patent US20150259344A1, “IMIDAZOLE DERIVATIVE” (DAINIPPON SUMITOMO PHARMA CO., LTD., priority 2012, published 2015).

Each compound was assayed against T1, human α7 nAChR (Homo sapiens, UniProt P36544) (assay: Evaluation of PAM activity with human α7 nACh receptor stably expressing cells (aequorin luminescence, FDSS7000)). Details: 1 μM test compound (values marked *, footnote of Table 25); ACh at EC20; ratio of RLU (Max-Min) to control wells; read-out: α7PAM (%) @1 μM.
T1 construct: expressed in transfected cells
Format: cell-based
Method in brief: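 Human α7 nAChR stable cells loaded with 4 μM Viviren (final) for 4 h at room temperature in the dark. Compounds in Hanks/20 mM HEPES/0.2% BSA were added and luminescence recorded on FDSS7000. PAM activity = RLU (Max-Min) ratio of test wells to control wells.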

T1 sequence (P36544 23-502): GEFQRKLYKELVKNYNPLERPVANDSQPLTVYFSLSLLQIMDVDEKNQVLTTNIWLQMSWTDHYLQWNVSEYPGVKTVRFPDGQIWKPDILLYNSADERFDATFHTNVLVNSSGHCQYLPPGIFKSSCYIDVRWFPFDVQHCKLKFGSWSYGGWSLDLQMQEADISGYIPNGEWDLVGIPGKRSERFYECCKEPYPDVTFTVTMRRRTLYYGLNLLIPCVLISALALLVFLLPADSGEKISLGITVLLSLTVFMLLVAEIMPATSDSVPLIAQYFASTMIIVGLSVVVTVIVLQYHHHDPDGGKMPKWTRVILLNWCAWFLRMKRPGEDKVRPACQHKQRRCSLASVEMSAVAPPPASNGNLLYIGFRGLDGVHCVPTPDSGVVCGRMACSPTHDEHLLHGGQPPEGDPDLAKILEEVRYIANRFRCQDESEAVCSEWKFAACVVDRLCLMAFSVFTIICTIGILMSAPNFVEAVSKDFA

Row | SMILES | activity at 1 µM [%]
1 | N#Cc1c(-c2cc(F)ccc2F)ncn1[C@@H]1C[C@H]2CC[C@@H](C1)N2C(=O)NC1CCC(F)(F)CC1 [Example 423] | 390
2 | O=C(C1CCC(F)(F)CC1)N1[C@@H]2CC[C@H]1C[C@@H](n1cnc(-c3cc(F)ccc3F)c1)C2 [Example 430] | 110
3 | O=C(NC1CCC1)N1CCC(n2cnc(-c3ccccc3)c2Cl)CC1 [Example 79] | 112
4 | CC(C)(C)C(=O)N[C@H]1CC[C@@H](n2cnc(-c3ccc(C(F)(F)F)cc3)c2C#N)CC1 [Example 199] | 230
5 | N#Cc1c(-c2cc(F)ccc2F)ncn1[C@@H]1C[C@H]2CC[C@@H](C1)N2C(=O)C1CCC(F)(F)CC1 [Example 464] | 124
6 | O=C(NC1CCCCC1)N1[C@@H]2CC[C@H]1C[C@@H](n1cnc(-c3ccc(F)cc3F)c1)C2 [Example 385] | 218
7 | O=C(NC1CCC(F)(F)CC1)N1[C@@H]2CC[C@H]1C[C@@H](n1cnc(-c3ccc(F)cc3F)c1)C2 [Example 384] | 652

Same assay, conditions: 10 μM test compound; ACh at EC20; ratio of RLU (Max-Min) to control wells

Row | α7PAM (%) @10 μM [%] | SMILES
8 | 424 | CC(C)(F)C(=O)N[C@H]1CC[C@@H](n2cnc(-c3ccc(F)cc3)c2)CC1 [Example 277]
9 | 330 | O=C(NC1CCCCC1)N1CCC(n2cnc(-c3cccs3)c2)CC1 [Example 129]

Same assay, conditions: 10 μM test compound; ACh at EC20; ratio of RLU (Max-Min) to control wells; read-out: α7PAM (%) @10 μM

Row | activity at 10 µM [%] | SMILES
10 | 153 | CC(C)(C)NC(=O)N1CCC(n2cnc(-c3ccccc3)c2CO)CC1 [Example 111]
11 | 290 | CC(C)(F)C(=O)N[C@H]1CC[C@@H](n2cnc(-c3ccccc3OC(F)(F)F)c2)CC1 [Example 311]
12 | 581 | O=C(N[C@H]1CC[C@@H](n2cnc(-c3ccccc3)c2Cl)CC1)C1CC(F)(F)C1 [Example 188]
13 | 253 | O=C(c1ccc(F)cn1)N1CCC(n2cnc(-c3ccc(Cl)cc3)c2)CC1 [Example 141]
14 | 283 | O=C(Nc1ccccc1F)N1CCC(n2cnc(-c3c(F)cccc3F)c2)CC1 [Example 12]
15 | 300 | CC1(NC(=O)N2CCC(n3cnc(-c4cccc(F)c4)c3)CC2)CCC1 [Example 31]
16 | 139 | N#Cc1c(-c2ccc(F)c(F)c2)ncn1C1CCN(C(=O)C2CCC(F)(F)CC2)CC1 [Example 273]
17 | 209 | O=C(NC1CCCCC1)N1CCC(n2cnc(-c3ccc(C(F)(F)F)cc3)c2)CC1 [Example 23]
18 | 901 | O=C(NC1CCOCC1)N1CCC(n2cnc(-c3ccc(Cl)cc3F)c2)CC1 [Example 248]
19 | 780 | Cc1ccc(-c2cn(C3CCN(C(=O)NC4CCC(F)(F)CC4)CC3)cn2)s1 [Example 126]
20 | 327 | CC(F)(F)C(=O)N[C@H]1CC[C@@H](n2cnc(-c3ccc(F)cc3)c2)CC1 [Example 288]
21 | 594 | N#Cc1c(-c2ccc(F)cc2)ncn1C1CCN(C(=O)C2CC(F)(F)C2)CC1 [Example 267]
22 | 158 | COc1cccc(-c2cn(C3CCN(C(=O)NC(C)(C)C)CC3)cn2)c1 [Example 70]
23 | 290 | O=C(C1CCC(F)(F)CC1)N1CCCC(n2cnc(-c3ccc(F)cc3)c2Cl)CC1 (stereo not drawn) [Example 243]
24 | 725 | N#Cc1c(-c2ccccc2)ncn1C1CCN(C(=O)C2CC(F)(F)C2)CC1 [Example 268]
25 | 641 | N#Cc1c(-c2ccccc2)ncn1[C@H]1CC[C@@H](NC(=O)C2CC(F)(F)C2)CC1 [Example 203]
26 | 220 | CO[C@H]1CC[C@H](NC(=O)N2CCC(n3cnc(-c4ccc(C(F)(F)F)cc4)c3)CC2)CC1 [Example 4, N-(trans-4-Methoxycyclohexyl)-4-{4-[4-(trifluoromethyl)phenyl]-1H-imidazol-1-yl}piperidine-1-carboxamide]
27 | 860 | CC(C)(F)C(=O)N[C@H]1CC[C@@H](n2cnc(-c3ccc(OC(F)(F)F)c(F)c3)c2Cl)CC1 [Example 324]
28 | 171 | O=C(NC1CCCCC1)N1CCC(n2cnc(-c3ccccn3)c2Cl)CC1 [Example 134]
29 | 576 | CC(C)(F)C(=O)N[C@H]1CC[C@@H](n2cnc(-c3ccccc3F)c2Cl)CC1 [Example 185]
30 | 318 | CCOc1ccc(-c2cn(C3CCN(C(=O)NC4CC5CCC4C5)CC3)cn2)cc1 (stereo not drawn) [Example 58]
31 | 530 | O=C(N[C@H]1CC[C@@H](n2cnc(-c3ccccc3)c2Cl)CC1)C1CCCC1 [Example 170]
32 | 328 | O=C(NC1CCC(F)(F)CC1)N1CCC(n2cnc(-c3ccccn3)c2Cl)CC1 [Example 137]

Row | activity at 10 µM [%] | SMILES
33 | 351 | Cc1ccccc1-c1cn(C2CCN(C(=O)NC3CCCCC3)CC2)cn1 [Example 14]
34 | 480 | CC(C)(F)C(=O)N[C@H]1CC[C@@H](n2cnc(-c3ccccc3)c2Cl)CC1 [Example 172]
35 | 229 | O=C(N[C@H]1CC[C@@H](n2cnc(-c3ccc(F)cc3)c2)CC1)C1CCOCC1 [Example 282]
36 | 375 | COc1ccc(-c2ncn([C@H]3CC[C@@H](NC(=O)C4CCCC4)CC3)c2Cl)cc1Cl [Example 180]
37 | 139 | O=C(Nc1ccccc1F)N1CCC(n2cnc(-c3ccc(F)c(F)c3)c2)CC1 [Example 27]
38 | 274 | O=C(C1CCC(F)(F)CC1)N1CCC(n2cnc(-c3ccc(F)c(F)c3)c2)CC1 [Example 139]
39 | 256 | O=C(NC1CCCCC1)N1CCC(n2cnc(-c3cccc(OC(F)F)c3)c2)CC1 [Example 53]
40 | 915 | CCOc1ccc(-c2cn(C3CCN(C(=O)NC4CCC(F)(F)CC4)CC3)cn2)cc1 [Example 61]
41 | 537 | O=C(NC1COC1)[C@H]1CC[C@@H](n2cnc(-c3ccc(F)cc3)c2Cl)CC1 [Example 364]
42 | 945 | O=C(C1CCC(F)(F)CC1)N1CCC(n2cnc(-c3ccccc3)c2Cl)CC1 [Example 152]
43 | 403 | CCOc1ccc(-c2cn(C3CCN(C(=O)NC4CCCCC4)CC3)cn2)cc1 [Example 55]
44 | 125 | O=C(N[C@H]1CC[C@@H](n2cnc(-c3ccc(F)cc3)c2)CC1)C(F)F [Example 289]
45 | 513 | COc1ccc(-c2cn([C@H]3CC[C@@H](NC(=O)C(C)(C)F)CC3)cn2)cc1Cl [Example 308]
46 | 317 | CC(C)(C)NC(=O)N1CCC(n2cnc(-c3ccccc3F)c2)CC1 [Example 67]
47 | 399 | O=C(C1CCC(F)(F)CC1)N1CCC(n2cnc(-c3ccc(F)cc3)c2)CC1 [Example 261]
48 | 644 | N#Cc1c(-c2ccc(F)cc2)ncn1C1CCN(C(=O)C2CCC(F)(F)CC2)CC1 [Example 154, 1-{1-[(4,4-difluorocyclohexyl)carbonyl]piperidin-4-yl}-4-(4-fluorophenyl)-1H-imidazole-5-carbonitrile]
49 | 759 | N#Cc1c(-c2ccc(F)cc2)ncn1C1CCN(C(=O)NC2CCCCC2)CC1 [Example 255]
50 | 138 | N#Cc1c(-c2cccc(F)c2F)ncn1C1CCN(C(=O)C2CCC(F)(F)CC2)CC1 [Example 272]
51 | 275 | N#Cc1c(-c2ccc(F)cc2F)ncn1C1CCN(C(=O)C2CCC(F)(F)CC2)CC1 [Example 271]
52 | 397 | CC(C)(F)C(=O)N[C@H]1CC[C@@H](n2cnc(-c3cccc(F)c3)c2Cl)CC1 [Example 175]
53 | 421 | O=C(N[C@H]1CC[C@@H](n2cnc(-c3ccc(F)cc3)c2Cl)CC1)C1CCOCC1 [Example 323]
54 | 153 | CC(C)(F)C(=O)N[C@H]1CC[C@@H](n2cnc(-c3cccc(OC(F)(F)F)c3)c2C#N)CC1 [Example 345]

Row | SMILES | activity at 10 µM [%]
55 | O=C(NC1CCCCC1)N1[C@@H]2CC[C@H]1C[C@H](n1cnc(-c3cc(F)ccc3F)c1)C2 [Example 411] | 229
56 | O=C(NC1CCC(F)(F)CC1)N1[C@@H]2CC[C@H]1C[C@@H](n1cnc(-c3cccc(F)c3F)c1)C2 [Example 386] | 880
57 | O=C(NC1CCC(F)(F)CC1)N1[C@@H]2CC[C@H]1C[C@H](n1cnc(-c3cccc(F)c3F)c1)C2 [Example 409] | 576
58 | O=C(NC1CCOCC1)N1[C@@H]2CC[C@H]1C[C@@H](n1cnc(-c3cccc(F)c3F)c1Cl)C2 [Example 399] | 891
59 | O=C(NC1CCCCC1)N1[C@@H]2CC[C@H]1C[C@H](n1cnc(-c3ccccc3)c1)C2 [Example 406] | 629
60 | O=C(NC1CCC(F)(F)CC1)N1[C@@H]2CC[C@H]1C[C@@H](n1cnc(-c3cc(F)ccc3F)c1Cl)C2 [Example 396] | 585
61 | O=C(C1CCC(F)(F)CC1)N1[C@@H]2CC[C@H]1C[C@@H](n1cnc(-c3ccccc3)c1)C2 [Example 428] | 144
62 | O=C(C1CCC(F)(F)CC1)N1[C@@H]2CC[C@H]1C[C@H](n1cnc(-c3ccccc3F)c1)C2 [Example 448] | 276
63 | O=C(NC1CCC(F)(F)CC1)N1[C@@H]2CC[C@H]1C[C@@H](n1cnc(-c3cccc(F)c3F)c1Cl)C2 [Example 398] | 607
64 | O=C(C1CCOCC1)N1[C@@H]2CC[C@H]1C[C@@H](n1cnc(-c3ccc(F)cc3F)c1Cl)C2 [Example 436] | 300
65 | O=C(C1CCC(F)(F)CC1)N1[C@@H]2CC[C@H]1C[C@@H](n1cnc(-c3ccccc3F)c1)C2 [Example 427] | 305
66 | O=C(C1CCC(F)(F)CC1)N1[C@@H]2CC[C@H]1C[C@@H](n1cnc(-c3ccc(F)cc3)c1)C2 [Example 425] | 155

Same assay, conditions: comparison across Tables 18 to 25

Row | PAM activity for α7 nAChR (in words) | SMILES
67 | stronger PAM activity than others | O=C(NC1CCC(F)(F)CC1)N1CCC(n2cnc(-c3ccc(C(F)(F)F)cc3)c2)CC1 [Example 25]
68 | stronger PAM activity than others | COc1cc(-c2cn(C3CCN(C(=O)NC4CCCCC4)CC3)cn2)ccc1Cl [Example 72]

Row | SMILES | PAM activity for α7 nAChR (in words)
69 | O=C(NC1CCOCC1)N1[C@@H]2CC[C@H]1C[C@H](n1cnc(-c3ccc(F)cc3F)c1Cl)C2 [Example 416] | stronger PAM activity than others
